Measured values reported in the supplement of paper PMC10307832.

Tests used:
Experiment in all cases: relative viability (nuclei count vs DMSO), 5 days (fraction); higher = more cells survive
AZ505 + Luminespib = compound: C1CCC(CC1)N(CCNCCC2=C3C(=C(C=C2)O)NC(=O)CO3)C(=O)CCNCCC4=CC(=C(C=C4)Cl)Cl [AZ505] + CCNC(=O)c1noc(-c2cc(C(C)C)c(O)cc2O)c1-c1ccc(CN2CCOCC2)cc1 [Luminespib] (partner 0.01 µM)
How it was run: (§1)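 Relative viability was taken as the ratio of nuclei in treated wells to nuclei in vehicle wells. Lung cancer cell lines in 1536-well plates received compounds by pin tool one day after seeding, either one drug alone or a fixed anchor-drug dose plus five library-drug doses (not always all listed) in √10 steps. Nuclei were counted on 4× images after 5 days of treatment, and values are medians of duplicate plates.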

Dactolisib + AZD7762 = compound: Cn1c(=O)n(-c2ccc(C(C)(C)C#N)cc2)c2c3cc(-c4cnc5ccccc5c4)ccc3ncc21 [Dactolisib] + NC(=O)Nc1cc(-c2cccc(F)c2)sc1C(=O)N[C@H]1CCCNC1 [AZD7762] (partner 0.2 µM)
How it was run: as §1

AZ505 + Olaparib = compound: C1CCC(CC1)N(CCNCCC2=C3C(=C(C=C2)O)NC(=O)CO3)C(=O)CCNCCC4=CC(=C(C=C4)Cl)Cl [AZ505] + O=C(c1cc(Cc2n[nH]c(=O)c3ccccc23)ccc1F)N1CCN(C(=O)C2CC2)CC1 [Olaparib] (partner 8 µM)
How it was run: as §1

Dactolisib + Pictilisib = compound: Cn1c(=O)n(-c2ccc(C(C)(C)C#N)cc2)c2c3cc(-c4cnc5ccccc5c4)ccc3ncc21 [Dactolisib] + CS(=O)(=O)N1CCN(Cc2cc3nc(-c4cccc5[nH]ncc45)nc(N4CCOCC4)c3s2)CC1 [Pictilisib] (partner 1 µM)
How it was run: as §1

| Cell Line | relative viability (AZ505 + Luminespib; first compound 0.08 µM) | relative viability (AZ505 + Luminespib; first compound 0.253 µM) | relative viability (AZ505 + Luminespib; first compound 0.8 µM) | relative viability (AZ505 + Luminespib; first compound 2.53 µM) | relative viability (AZ505 + Luminespib; first compound 8 µM) | relative viability (Dactolisib + AZD7762; first compound 0.002 µM) | relative viability (Dactolisib + AZD7762; first compound 0.006325 µM) | relative viability (Dactolisib + AZD7762; first compound 0.02 µM) | relative viability (Dactolisib + AZD7762; first compound 0.06325 µM) | relative viability (Dactolisib + AZD7762; first compound 0.2 µM) | relative viability (AZ505 + Olaparib; first compound 0.08 µM) | relative viability (AZ505 + Olaparib; first compound 0.253 µM) | relative viability (AZ505 + Olaparib; first compound 0.8 µM) | relative viability (AZ505 + Olaparib; first compound 2.53 µM) | relative viability (AZ505 + Olaparib; first compound 8 µM) | relative viability (Dactolisib + Pictilisib; first compound 0.002 µM) | relative viability (Dactolisib + Pictilisib; first compound 0.006325 µM) | relative viability (Dactolisib + Pictilisib; first compound 0.02 µM) | relative viability (Dactolisib + Pictilisib; first compound 0.06325 µM) | relative viability (Dactolisib + Pictilisib; first compound 0.2 µM) |
| --- | --- | --- | --- | --- | --- | --- | --- | --- | --- | --- | --- | --- | --- | --- | --- | --- | --- | --- | --- | --- |
| NCI-H838 | 0.413 | 0.251 | 0.253 | 0.287 | 0.424 | 0.845 | 0.908 | 0.843 | 0.709 | 0.633 | 0.688 | 0.765 | 0.744 | 0.787 | 0.776 | 0.351 | 0.302 | 0.239 | 0.204 | 0.218 |
| NCI-H1755 | 0.505 | 0.589 | 0.448 | 0.594 | 0.444 | 0.355 | 0.453 | 0.422 | 0.411 | 0.325 | 0.82 | 0.849 | 0.92 | 0.885 | 0.868 | 0.47 | 0.471 | 0.451 | 0.368 | 0.274 |
| HCC-78 |  |  |  |  |  | 0.627 | 0.712 | 0.553 | 0.484 | 0.242 |  |  | 0.878 | 0.829 | 1.03 | 0.225 | 0.22 | 0.195 | 0.206 | 0.193 |
| IA-LM |  |  |  |  |  |  |  |  |  |  | 0.78 | 0.846 | 0.807 | 0.902 | 0.889 | 0.371 | 0.331 | 0.219 | 0.116 | 0.0809 |
| SK-LU-1 | 0.201 | 0.203 | 0.18 | 0.18 | 0.176 |  |  |  |  |  | 0.268 | 0.364 | 0.349 | 0.314 | 0.326 | 0.48 | 0.547 | 0.484 | 0.432 | 0.211 |
| COR-L23 | 0.54 | 0.771 | 0.611 | 0.613 | 0.706 |  |  |  |  |  | 0.282 | 0.344 | 0.32 | 0.374 | 0.38 | 0.925 | 0.656 | 0.546 | 0.177 | 0.151 |
| NCI-H2023 | 0.727 | 0.873 | 0.712 | 0.83 | 0.968 |  |  |  |  |  | 0.414 | 0.496 | 0.499 | 0.471 | 0.43 | 0.205 | 0.212 | 0.173 | 0.121 | 0.108 |
| COR-L 105 | 0.739 | 0.707 | 0.765 | 0.831 | 0.905 |  |  |  |  |  | 0.405 | 0.657 | 0.698 | 0.715 | 0.554 | 0.423 | 0.364 | 0.377 | 0.332 | 0.305 |
| NCI-H520 | 0.232 | 0.186 | 0.312 | 0.239 | 0.211 |  |  |  |  |  | 0.288 | 0.279 | 0.367 | 0.302 | 0.349 | 0.299 | 0.235 | 0.234 | 0.195 | 0.184 |
| SW 1573 | 0.165 | 0.257 | 0.427 | 0.0963 | 0.277 |  |  |  |  |  | 0.391 | 0.493 | 0.425 | 0.468 | 0.467 | 0.609 | 0.446 | 0.405 | 0.35 | 0.15 |
| NCI-H2342 | 0.792 | 0.662 | 0.814 | 0.687 | 0.738 | 0.511 | 0.49 | 0.444 | 0.471 | 0.413 | 0.428 | 0.463 | 0.491 | 0.485 | 0.488 |  |  |  |  |  |
| NCI-H1299 |  |  |  |  |  |  |  |  |  |  | 0.897 | 0.925 | 0.932 | 0.885 | 0.876 | 0.794 | 0.701 | 0.659 | 0.351 | 0.253 |
| NCI-H1650 | 0.206 | 0.227 | 0.202 | 0.19 | 0.199 |  |  |  |  |  | 0.723 | 0.803 | 0.735 | 0.727 | 0.853 | 0.672 | 0.48 | 0.524 | 0.321 | 0.323 |
| NCI-H2009 | 0.847 | 1.08 | 1.02 | 0.956 | 0.962 |  |  |  |  |  | 0.64 | 0.675 | 0.647 | 0.652 | 0.629 | 0.961 | 0.853 | 0.727 | 0.498 | 0.322 |
| SW 900 | 0.193 | 0.183 | 0.137 | 0.195 | 0.167 | 0.607 | 0.526 | 0.596 | 0.435 | 0.224 | 0.853 | 0.775 | 0.86 | 0.932 | 0.987 |  |  |  |  |  |
| SK-MES-1 | 0.511 | 0.77 | 0.758 | 0.643 | 0.768 |  |  |  |  |  | 0.682 | 0.694 | 0.662 | 0.603 | 0.719 | 0.391 | 0.356 | 0.297 | 0.337 | 0.182 |
| NCI-H1648 |  |  |  |  |  | 0.934 | 0.762 | 0.629 | 0.603 | 0.555 |  | 0.794 | 0.795 | 0.754 | 1.38 |  |  |  |  |  |
| NCI-H522 | 1.12 | 1.19 | 1.2 | 1.33 | 1.18 | 0.83 | 0.858 | 0.979 | 0.695 | 0.626 | 0.607 | 0.645 | 0.698 | 0.698 | 0.685 |  |  |  |  |  |
| HCC-366 |  |  |  |  |  | 0.198 | 0.27 | 0.238 | 0.203 | 0.0362 | 0.277 | 0.439 | 0.315 | 0.412 | 0.406 | 0.201 | 0.147 | 0.124 | 0.0657 | 0.102 |
| A549 |  |  |  |  |  |  |  |  |  |  | 0.315 | 0.362 | 0.358 | 0.415 | 0.296 | 0.544 | 0.356 | 0.3 | 0.145 | 0.112 |
| NCI-H661 | 0.879 | 0.928 | 0.909 | 0.914 | 0.928 |  |  |  |  |  | 0.732 | 0.751 | 0.728 | 0.709 | 0.727 | 0.468 | 0.406 | 0.389 | 0.377 | 0.251 |
| NCI-H1563 | 0.478 | 0.504 | 0.522 | 0.473 | 0.508 |  |  |  |  |  |  |  |  |  |  | 0.682 | 0.624 | 0.625 | 0.651 | 0.573 |
